This is an account of results in patent publication US8173689B2 (Novartis AG, priority 2006, dated 2012).

Like-named read-outs stand apart in the source and are kept apart here.

In test [1] the target is T1, cytoplasmic domain of the human CSF-1R (Homo sapiens, UniProt P07333).
T1 construct: Recombinant protein corresponding to the cytoplasmic domain of the human CSF-1R; purchased Invitrogen Corporation, Carlsbad, Calif; PV3249
T1 sequence (P07333 539-972 limits assumed): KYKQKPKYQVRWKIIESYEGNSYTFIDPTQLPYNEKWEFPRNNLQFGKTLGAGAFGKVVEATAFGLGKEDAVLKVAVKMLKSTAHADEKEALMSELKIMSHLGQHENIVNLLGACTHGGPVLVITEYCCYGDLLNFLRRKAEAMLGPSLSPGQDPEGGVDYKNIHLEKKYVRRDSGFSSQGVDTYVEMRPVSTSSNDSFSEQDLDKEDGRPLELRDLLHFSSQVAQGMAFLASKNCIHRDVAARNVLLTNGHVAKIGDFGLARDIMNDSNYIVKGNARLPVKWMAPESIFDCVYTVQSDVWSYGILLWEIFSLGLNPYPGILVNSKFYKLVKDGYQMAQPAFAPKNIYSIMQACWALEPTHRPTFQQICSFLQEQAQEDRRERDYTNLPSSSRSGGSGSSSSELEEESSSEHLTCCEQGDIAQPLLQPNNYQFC
Nature of the test: In vitro kinase assay for colony stimulating factor-1 receptor (AlphaScreen). It counts as biochemical. The following applies: tested at about 1 μM, read-out: CSF-1R percent inhibition. Put shortly:
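Kinase reaction used 4 nM recombinant cytoplasmic domain at 1 μM ATP in 50 mM Hepes pH 7.5 with 5 mM MgCl2, 10 mM MnCl2, 0.1% BSA, 1.0 mM DTT and 0.01% Tween 80. Compounds were serially diluted 3-fold from 25 μM. Phosphopeptide was detected by AlphaScreen, PT66 anti-phosphotyrosine acceptor plus streptavidin donor beads, read after overnight incubation.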

Test [2] concerns the target T2, full-length human CSF-1R receptor (Homo sapiens, UniProt P07333).
T2 construct: transfected with the full-length human CSF-1R receptor cloned in house; expressed in transfected cells; host or cells: HEK293H (Invitrogen Cat. #11631017)
The test can be described thus: In vitro inhibition of CSF-1R receptor tyrosine phosphorylation in transfected HEK293H cells stimulated with MCSF. It is filed as cell-based. The following applies: HEK293-H, tested at about 1 μM, read-out: pCSF1R percent inhibition. How it is done: The lysate was then transferred to total CSF-1R antibody coated 96-well plates that had already been blocked with 3% Blocker A from Mesoscale discovery (MSD) for 2 hours and washed afterwards. Lysates were incubated overnight at 4° C. and the plates were then washed 4× with MSD Tris Wash Buffer. […] The plates were read on the Sector 6000 instrument (MSD). Raw data was imported in Abase and EC50s calculated with XL-fit data analysis software.

The target in test [3] is T3, kinase domain of cKIT (Homo sapiens, UniProt P10721).
T3 construct: The kinase domain of cKIT was assayed in 50 mM Hepes; purchased Upstate 14-559
Nature of the test: Inhibition of cKIT kinase signaling in an in vitro biochemical assay (alphascreen). Particulars: tested at about 1 μM; for inhibition at 1 µM: read-out: cKit percent inhibition.

Test [4] concerns the target T4, kinase domain of PDGFRβ (Homo sapiens, UniProt P09619).
T4 construct: The kinase domain of PDGFRβ was assayed in 50 mM Hepes; purchased Invitrogen P3082
The test can be described thus: Inhibition of PDGFRb kinase signaling in an in vitro biochemical assay (alphascreen). Particulars: tested at about 1 μM; for inhibition at 1 µM: read-out: PDGFRβ percent inhibition.

For test [5], the system named is MNFS60 (murine AML cells). Nature of the test: Cell viability assay in MCSF dependent MNFS60 cells (Cell Titer Glo). Particulars: Mus musculus, tested at about 1 μM, read-out: M-NFS-60 CP percent inhibition. It counts as cell-based. The method in brief:
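3-fold DMSO dilution series (500× stocks); MCSF 10 ng/ml final; 72 hrs, 37° C., 5% CO2; CellTiter-Glo read-out; n=3; EC50 fitted.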

T4 sequence (P09619 600-962 limits assumed): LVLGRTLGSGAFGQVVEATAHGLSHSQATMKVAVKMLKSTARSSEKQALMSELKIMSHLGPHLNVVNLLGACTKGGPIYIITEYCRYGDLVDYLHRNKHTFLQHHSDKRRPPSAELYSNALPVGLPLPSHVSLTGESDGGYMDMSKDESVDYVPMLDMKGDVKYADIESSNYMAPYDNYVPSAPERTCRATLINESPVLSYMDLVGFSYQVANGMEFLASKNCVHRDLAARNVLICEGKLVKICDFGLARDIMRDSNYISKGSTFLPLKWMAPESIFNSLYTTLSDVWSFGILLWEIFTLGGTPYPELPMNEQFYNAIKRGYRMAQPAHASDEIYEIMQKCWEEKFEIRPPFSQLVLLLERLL
T3 sequence (P10721 589-937 limits assumed): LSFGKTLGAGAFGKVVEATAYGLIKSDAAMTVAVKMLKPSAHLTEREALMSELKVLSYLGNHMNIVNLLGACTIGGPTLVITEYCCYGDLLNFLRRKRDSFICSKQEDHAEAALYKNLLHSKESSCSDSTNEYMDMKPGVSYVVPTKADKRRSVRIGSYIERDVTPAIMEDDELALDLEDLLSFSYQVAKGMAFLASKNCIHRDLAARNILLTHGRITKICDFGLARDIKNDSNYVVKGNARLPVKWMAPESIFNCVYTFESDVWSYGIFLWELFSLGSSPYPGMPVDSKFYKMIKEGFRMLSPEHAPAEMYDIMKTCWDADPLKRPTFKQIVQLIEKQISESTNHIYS
T2 sequence (P07333 20-972): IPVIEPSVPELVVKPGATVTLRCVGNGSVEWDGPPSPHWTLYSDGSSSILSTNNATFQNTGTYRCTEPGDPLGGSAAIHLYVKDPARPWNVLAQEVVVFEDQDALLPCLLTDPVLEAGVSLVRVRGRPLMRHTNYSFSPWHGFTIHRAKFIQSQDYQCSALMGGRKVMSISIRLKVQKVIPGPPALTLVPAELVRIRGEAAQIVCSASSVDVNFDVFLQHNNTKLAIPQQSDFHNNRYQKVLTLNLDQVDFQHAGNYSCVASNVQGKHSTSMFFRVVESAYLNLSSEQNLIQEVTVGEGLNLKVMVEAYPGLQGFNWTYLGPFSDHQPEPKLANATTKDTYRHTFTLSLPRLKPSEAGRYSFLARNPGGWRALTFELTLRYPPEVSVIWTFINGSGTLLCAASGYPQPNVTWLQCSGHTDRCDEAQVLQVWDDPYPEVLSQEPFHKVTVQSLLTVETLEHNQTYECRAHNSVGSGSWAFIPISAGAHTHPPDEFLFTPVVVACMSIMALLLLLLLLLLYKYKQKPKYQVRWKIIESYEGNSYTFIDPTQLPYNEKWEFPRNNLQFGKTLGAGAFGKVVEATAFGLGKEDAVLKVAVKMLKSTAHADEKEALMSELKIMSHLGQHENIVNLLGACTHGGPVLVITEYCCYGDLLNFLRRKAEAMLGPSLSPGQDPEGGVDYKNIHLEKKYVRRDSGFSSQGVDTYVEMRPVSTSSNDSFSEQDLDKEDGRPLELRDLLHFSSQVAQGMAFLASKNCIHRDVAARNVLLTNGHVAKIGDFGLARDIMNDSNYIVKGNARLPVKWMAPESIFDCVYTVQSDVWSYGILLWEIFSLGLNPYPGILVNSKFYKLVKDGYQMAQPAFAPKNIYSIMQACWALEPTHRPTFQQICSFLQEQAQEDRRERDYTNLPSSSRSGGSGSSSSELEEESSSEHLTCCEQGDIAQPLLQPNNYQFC

`CNC(=O)c1cc(Oc2ccc3nc(NCc4cccc5c4OCCO5)sc3c2)ccn1` [Compound 152, 4-{2-[(2,3-Dihydro-benzo-[1,4]dioxin-5-ylmethyl)-amino]-benzothiazol-6-yloxy}-pyridine-2-carboxylic acid methylamide]: the inhibition at 1 µM in test [1] is 99%; in test [2] (HEK293H cells) it was 98%; in test [3], 100%; in test [4], 82%; in test [5] (MNFS60 cells), 100%.
As to `CNC(=O)c1cc(Oc2ccc3nc(NCc4cccnc4)sc3c2)ccn1` [Compound 154, 4-{2-[(Pyridin-3-ylmethyl)-amino]-benzothiazol-6-yloxy}-pyridine-2-carboxylic acid methylamide], the inhibition at 1 µM was determined as 99% in test [1]; 93% in test [2] (HEK293H cells); 17% in test [3]; 18% in test [4]; 48% in test [5] (MNFS60 cells).
For the molecule `CNC(=O)c1cc(Oc2ccc3nc(N[C@H]4CCCC[C@@H]4OCc4ccccc4)sc3c2)ccn1` [Compound 156, 4-[2-((1S,2S)-2-Benzyloxy-cyclohexylamino)-benzothiazol-6-yloxy]-pyridine-2-carboxylic acid methylamide], the inhibition at 1 µM was found to be 100% in test [1]; 16% in test [2] (HEK293H cells); 27% in test [3]; 41% in test [4]; 63% in test [5] (MNFS60 cells).
On to `CNC(=O)c1cc(Oc2ccc3nc(N[C@@H]4CCCC[C@H]4O)sc3c2)ccn1` [Compound 157, 4-[2-((1R,2R)-2-Hydroxy-cyclohexylamino)-benzothiazol-6-yloxy]-pyridine-2-carboxylic acid methylamide], for which the inhibition at 1 µM in test [1] came out at 100%; in test [2] (HEK293H cells), 99%; in test [5] (MNFS60 cells), 100%. The cKit percent inhibition in test [3] stood at 20%. Also, in test [4], the PDGFRβ percent inhibition stood at 20%.
Regarding `O[C@@H]1CCCC[C@H]1Nc1nc2ccc(Oc3ccnc(-c4cscn4)c3)cc2s1` [Compound 159], the inhibition at 1 µM in test [1] (compounds of Table 3) came to 100%; in test [2] (compounds of Table 3) it was 96%; in test [3] (compounds of Table 3), 29%; in test [4] (compounds of Table 3) it was 23%; in test [5] (compounds of Table 3), 98%.
The matching figures for `N#Cc1ccc2nccc(Oc3ccc4nc(N[C@@H]5CCCC[C@H]5O)sc4c3)c2c1` [Example 220, 4-(2-((1R,2R)-2-hydroxycyclohexylamino)benzo[d]thiazol-6-yloxy)quinolin-6-carbonitrile]: 100%, 91%, 48%, 65% and 84%.
On to `N#Cc1ccc2c(Oc3ccc4nc(N[C@@H]5CCCC[C@H]5O)sc4c3)ccnc2c1` [Example 222, 4-(2-((1R,2R)-2-hydroxycyclohexylamino)benzo[d]thiazol-6-yloxy)quinoline-7-carbonitrile], for which the inhibition at 1 µM stood at 100% in test [1] (compounds of Table 3); 68% in test [2] (compounds of Table 3); 52% in test [3] (compounds of Table 3); 69% in test [4] (compounds of Table 3); 91% in test [5] (compounds of Table 3).
The matching figures for `CNC(=O)c1cc(Oc2ccc3nc(NCc4c(F)cccc4OC)sc3c2)ccn1` [Example 223, 4-(2-(2-fluoro-6-methoxybenzylamino)benzo[d]thiazol-6-yloxy)-N-methylpicolinamide]: 100%, 97%, 54%, 28% and 100%.
The like results for `O[C@@H]1CCCC[C@H]1Nc1nc2ccc(Oc3ccnc4cc(F)ccc34)cc2s1` [Example 229, (1R,2R)-2-(6-(7-fluoroquinolin-4-yloxy)benzo[d]thiazol-2-ylamino)cyclohexanol] were, in that order, 100%, 92%, 21%, 30% and 80%.
